Assay results published in ChEMBL document CHEMBL1128661, “Vasorelaxant activity of 2-fluoroalkyl-6-nitro-2H-1-benzopyran-4-carbothioamide and -carboxamide K+ channel openers” (Bioorg Med Chem Lett, 1995).

Key:
Rattus norvegicus [1] = species on record: Rattus norvegicus; experiment: Negative logarithm of the molar concentration required to relax rat aorta precontracted with 30 mM KCI by 50% of IA; format: functional, organism-based
Rattus norvegicus [2] = species on record: Rattus norvegicus; experiment: Intrinsic vasorelaxant activity tested in rat aorta; format: functional

Row | SMILES | EC50 (Rattus norvegicus [1]) | Intrinsic activity (Rattus norvegicus [2])
1 | N#CCCNC(=O)C1=CC(CF)(CF)Oc2ccc([N+](=O)[O-])cc21 | 2.24 nM | 72.3%
2 | CC1(C)C=C(C(=O)NCCC#N)c2cc([N+](=O)[O-])ccc2O1 | 2.82 nM | 73.1%
3 | C/N=C(/S)C1=CC(C)(C)Oc2ccc([N+](=O)[O-])cc21 | – | 63.5%
4 | CC1(C)Oc2ccc(C#N)cc2[C@@H](N2CCCC2=O)[C@@H]1O [CROMAKALIM] | – | 74.7%
5 | CNC(=O)C1=CC(C)(C)Oc2ccc([N+](=O)[O-])cc21 | – | 61%
6 | CNC(=O)C1=CC(CF)(CF)Oc2ccc([N+](=O)[O-])cc21 | 5.13 nM | 70.7%
7 | C/N=C(/S)C1=CC(C)(CF)Oc2ccc([N+](=O)[O-])cc21 (configuration not stated) | 1.62 nM | 77.1%
8 | CNC(=O)C1=CC(C)(C(F)(F)F)Oc2ccc([N+](=O)[O-])cc21 (configuration not stated) | 2.69 nM | 61.7%
9 | CC1(CF)C=C(C(=O)NCCC#N)c2cc([N+](=O)[O-])ccc2O1 (configuration not stated) | 3.98 nM | 71%
10 | CNC(=O)C1=CC(C)(CF)Oc2ccc([N+](=O)[O-])cc21 (configuration not stated) | 8.91 nM | 66%
11 | CNC(=O)C1=CC(C(F)(F)F)(C(F)(F)F)Oc2ccc([N+](=O)[O-])cc21 | 1.48 nM | 57.9%
12 | CC1(C(F)(F)F)C=C(C(=O)NCCC#N)c2cc([N+](=O)[O-])ccc2O1 (configuration not stated) | 0.692 nM | 70.6%
13 | CC(N/C(=N\C#N)Nc1ccncc1)C(C)(C)C (configuration not stated) [PINACIDIL ANHYDROUS] | – | 91.9%
14 | CC1(CF)C=C(/C(S)=N\CCC#N)c2cc([N+](=O)[O-])ccc2O1 (configuration not stated) | 1.86 nM | 59.6%

Now from value to molecule, other results behind:

Row | EC50 (Rattus norvegicus [1]) | SMILES | Intrinsic activity (Rattus norvegicus [2])
15 | 0.0251 nM | C/N=C(/S)C1=CC2(CCC2)Oc2ccc([N+](=O)[O-])cc21 | –
16 | 0.141 nM | N#CCC/N=C(\S)C1=CC(CF)(CF)Oc2ccc([N+](=O)[O-])cc21 | 72.5%
17 | 0.363 nM | CC1(C(F)(F)F)C=C(/C(S)=N\CCC#N)c2cc([N+](=O)[O-])ccc2O1 (configuration not stated) | 69.7%
18 | 0.437 nM | N#CCC/N=C(/S)C1=CC(C(F)(F)F)(C(F)(F)F)Oc2ccc([N+](=O)[O-])cc21 | 74.8%
19 | 0.49 nM | N#CCCNC(=O)C1=CC(C(F)(F)F)(C(F)(F)F)Oc2ccc([N+](=O)[O-])cc21 | 64.1%
20 | 0.631 nM | C/N=C(/S)C1=CC(C(F)(F)F)(C(F)(F)F)Oc2ccc([N+](=O)[O-])cc21 | 68%
21 | 0.0209 nM | C/N=C(/S)C1=CC2(CCCC2)Oc2ccc([N+](=O)[O-])cc21 | –
22 | 0.372 nM | CC1(C)C=C(/C(S)=N\CCC#N)c2cc([N+](=O)[O-])ccc2O1 | 78.5%
23 | 0.302 nM | C/N=C(/S)C1=CC(C)(C(F)(F)F)Oc2ccc([N+](=O)[O-])cc21 (configuration not stated) | 62.5%
24 | 0.479 nM | C/N=C(/S)C1=CC(CF)(CF)Oc2ccc([N+](=O)[O-])cc21 | 74.5%
